Experimental data published in the kinase profiling compilation of Christmann-Franck et al. (2016).
Each block holds one compound with its values, some of them ahead of it.

Assays:
Test in all cases: radiometric filter-binding kinase assay
[1] = target: CHEK2 (human) (UniProt O96017)
[2] = target: CLK2 (human) (UniProt P49760)
[3] = target: DAPK1 (human) (UniProt P53355)
[4] = target: DYRK2 (human) (UniProt Q92630)
[5] = target: DYRK3 (human) (UniProt O43781)
[6] = target: EPHA2 (human) (UniProt P29317)
[7] = target: EPHB1 (human) (UniProt P54762)
[8] = target: EPHB2 (human) (UniProt P29323)
[9] = target: EPHB4 (human) (UniProt P54760)
EPHB4 (human), sequence (P54760 whole entry, looked up): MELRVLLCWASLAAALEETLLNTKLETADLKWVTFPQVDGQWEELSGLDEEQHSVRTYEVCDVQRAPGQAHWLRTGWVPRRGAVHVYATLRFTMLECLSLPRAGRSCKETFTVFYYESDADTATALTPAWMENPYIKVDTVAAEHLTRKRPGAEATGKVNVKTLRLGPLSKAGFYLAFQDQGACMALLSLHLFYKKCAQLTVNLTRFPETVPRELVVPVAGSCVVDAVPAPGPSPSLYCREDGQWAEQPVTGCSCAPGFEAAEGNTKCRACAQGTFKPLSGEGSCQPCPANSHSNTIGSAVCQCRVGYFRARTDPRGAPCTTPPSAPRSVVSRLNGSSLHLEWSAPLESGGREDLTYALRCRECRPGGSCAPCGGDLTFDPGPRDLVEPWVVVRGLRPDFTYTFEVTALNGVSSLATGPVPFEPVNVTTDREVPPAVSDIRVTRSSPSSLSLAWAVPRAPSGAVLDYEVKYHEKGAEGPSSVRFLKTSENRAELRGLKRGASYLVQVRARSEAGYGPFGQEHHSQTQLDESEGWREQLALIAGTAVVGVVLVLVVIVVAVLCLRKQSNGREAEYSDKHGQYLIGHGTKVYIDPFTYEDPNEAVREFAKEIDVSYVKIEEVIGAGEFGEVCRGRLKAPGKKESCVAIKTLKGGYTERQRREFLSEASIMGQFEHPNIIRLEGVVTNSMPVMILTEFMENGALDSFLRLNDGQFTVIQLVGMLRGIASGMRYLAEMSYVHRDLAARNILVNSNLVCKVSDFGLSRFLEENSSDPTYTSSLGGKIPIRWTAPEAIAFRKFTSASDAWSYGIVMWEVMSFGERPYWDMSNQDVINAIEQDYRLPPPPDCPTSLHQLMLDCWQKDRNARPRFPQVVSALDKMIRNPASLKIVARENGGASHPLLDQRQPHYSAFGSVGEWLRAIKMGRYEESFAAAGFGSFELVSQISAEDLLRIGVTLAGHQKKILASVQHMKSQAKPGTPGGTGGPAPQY

[10] = target: FLT1 (human) (UniProt P17948)
[11] = target: GCK (human) (UniProt Q12851)
[12] = target: HIPK2 (human) (UniProt Q9H2X6)
[13] = target: IKBKE (human) (UniProt Q14164)
[14] = target: IRAK4 (human) (UniProt Q9NWZ3)
[15] = target: MAP3K7 TAB1 (human) (UniProt Q15750+O43318)
[16] = target: MAPK12 (human) (UniProt P53778)
[17] = target: MAPK14 (human) (UniProt Q16539)
MAPK14 (human), sequence (Q16539 whole entry, looked up): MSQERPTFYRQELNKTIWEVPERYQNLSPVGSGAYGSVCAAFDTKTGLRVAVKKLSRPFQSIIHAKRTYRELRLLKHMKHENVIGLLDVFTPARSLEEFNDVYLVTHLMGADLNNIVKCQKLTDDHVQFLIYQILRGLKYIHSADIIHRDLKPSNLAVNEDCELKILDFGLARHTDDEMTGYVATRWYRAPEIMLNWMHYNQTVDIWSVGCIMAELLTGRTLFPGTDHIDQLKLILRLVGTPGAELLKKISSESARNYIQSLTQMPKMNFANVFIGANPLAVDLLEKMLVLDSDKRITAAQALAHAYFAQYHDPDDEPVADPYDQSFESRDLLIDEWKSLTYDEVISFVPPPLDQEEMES

[18] = target: MAPKAPK2 (human) (UniProt P49137)
[19] = target: MAPKAPK5 (human) (UniProt Q8IW41)
[20] = target: MARK1 (human) (UniProt Q9P0L2)
[21] = target: MARK2 (human) (UniProt Q7KZI7)
[22] = target: MELK (human) (UniProt Q14680)
[23] = target: MYLK (human) (UniProt Q15746)
[24] = target: NEK2 (human) (UniProt P51955)
[25] = target: PIM1 (human) (UniProt P11309)
PIM1 (human), sequence (P11309 whole entry, looked up): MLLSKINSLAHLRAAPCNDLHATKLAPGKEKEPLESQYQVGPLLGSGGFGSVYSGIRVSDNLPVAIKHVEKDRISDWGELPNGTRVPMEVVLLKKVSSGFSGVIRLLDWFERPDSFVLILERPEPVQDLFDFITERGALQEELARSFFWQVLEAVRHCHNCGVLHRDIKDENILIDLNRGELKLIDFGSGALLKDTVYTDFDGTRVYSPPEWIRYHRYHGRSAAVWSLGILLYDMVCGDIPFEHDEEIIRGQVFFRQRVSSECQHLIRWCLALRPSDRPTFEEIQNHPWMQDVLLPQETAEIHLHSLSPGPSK

[26] = target: PIM3 (human) (UniProt Q86V86)
[27] = target: PKN2 (human) (UniProt Q16513)
PKN2 (human), sequence (Q16513 whole entry, looked up): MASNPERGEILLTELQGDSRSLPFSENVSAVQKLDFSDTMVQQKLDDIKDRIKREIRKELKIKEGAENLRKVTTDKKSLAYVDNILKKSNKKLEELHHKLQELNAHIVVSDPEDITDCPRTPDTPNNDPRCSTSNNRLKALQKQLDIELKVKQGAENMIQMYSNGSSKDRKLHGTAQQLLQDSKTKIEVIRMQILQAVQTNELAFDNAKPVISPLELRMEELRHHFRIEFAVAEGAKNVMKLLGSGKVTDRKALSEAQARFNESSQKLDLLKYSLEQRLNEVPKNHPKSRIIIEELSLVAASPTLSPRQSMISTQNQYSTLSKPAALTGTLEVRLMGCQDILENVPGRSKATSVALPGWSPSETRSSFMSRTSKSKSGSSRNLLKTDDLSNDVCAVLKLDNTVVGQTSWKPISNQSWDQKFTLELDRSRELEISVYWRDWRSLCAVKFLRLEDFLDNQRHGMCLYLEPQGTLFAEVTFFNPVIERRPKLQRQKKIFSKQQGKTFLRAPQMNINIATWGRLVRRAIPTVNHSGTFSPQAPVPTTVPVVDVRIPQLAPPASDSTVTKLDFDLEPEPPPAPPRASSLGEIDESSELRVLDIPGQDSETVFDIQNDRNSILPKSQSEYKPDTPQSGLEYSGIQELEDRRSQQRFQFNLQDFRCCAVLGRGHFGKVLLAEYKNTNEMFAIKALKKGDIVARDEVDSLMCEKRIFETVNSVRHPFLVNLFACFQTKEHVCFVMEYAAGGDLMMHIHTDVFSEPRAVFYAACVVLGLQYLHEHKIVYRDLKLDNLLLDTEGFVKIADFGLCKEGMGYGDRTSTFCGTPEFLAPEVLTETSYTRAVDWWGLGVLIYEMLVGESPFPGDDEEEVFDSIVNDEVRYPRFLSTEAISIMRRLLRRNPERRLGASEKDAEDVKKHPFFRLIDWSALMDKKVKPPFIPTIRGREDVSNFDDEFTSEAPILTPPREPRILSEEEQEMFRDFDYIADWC

[28] = target: PRKCA (human) (UniProt P17252)
[29] = tested on: ROCK2 (rat); settings: accession and sequence are those of the human protein
[30] = target: RPS6KA1 KD1 KD2 (human) (UniProt Q15418)
RPS6KA1 KD1 KD2 (human), sequence (Q15418 whole entry, looked up): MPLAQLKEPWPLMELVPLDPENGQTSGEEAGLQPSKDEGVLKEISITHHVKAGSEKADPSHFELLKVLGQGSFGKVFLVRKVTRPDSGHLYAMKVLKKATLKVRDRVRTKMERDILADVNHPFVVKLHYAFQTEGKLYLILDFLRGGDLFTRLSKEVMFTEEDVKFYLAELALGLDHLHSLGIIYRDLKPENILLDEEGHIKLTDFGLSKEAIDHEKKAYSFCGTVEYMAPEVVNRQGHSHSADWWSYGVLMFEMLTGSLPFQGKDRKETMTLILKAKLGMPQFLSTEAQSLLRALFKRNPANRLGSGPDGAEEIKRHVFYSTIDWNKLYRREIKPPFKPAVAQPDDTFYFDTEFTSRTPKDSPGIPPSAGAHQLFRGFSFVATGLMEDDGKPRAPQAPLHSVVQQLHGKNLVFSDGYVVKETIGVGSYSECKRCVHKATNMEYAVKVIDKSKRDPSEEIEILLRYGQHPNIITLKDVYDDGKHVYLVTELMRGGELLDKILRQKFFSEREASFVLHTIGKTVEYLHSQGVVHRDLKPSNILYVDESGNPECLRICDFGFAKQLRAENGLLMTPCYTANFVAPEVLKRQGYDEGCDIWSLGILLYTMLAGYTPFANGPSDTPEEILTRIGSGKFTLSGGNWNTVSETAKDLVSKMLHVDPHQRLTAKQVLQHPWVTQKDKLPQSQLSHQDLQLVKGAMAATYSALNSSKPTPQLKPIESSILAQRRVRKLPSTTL

[31] = tested on: RPS6KB1 (human), P23443 [T412E]
[32] = tested on: SGK1 (human), O00141 [S422D]
[33] = target: STK3 (human) (UniProt Q13188)
[34] = target: TAOK1 (human) (UniProt Q7L7X3)
[35] = target: TTK (human) (UniProt P33981)

DYRK2 (human), sequence (Q92630 whole entry, looked up): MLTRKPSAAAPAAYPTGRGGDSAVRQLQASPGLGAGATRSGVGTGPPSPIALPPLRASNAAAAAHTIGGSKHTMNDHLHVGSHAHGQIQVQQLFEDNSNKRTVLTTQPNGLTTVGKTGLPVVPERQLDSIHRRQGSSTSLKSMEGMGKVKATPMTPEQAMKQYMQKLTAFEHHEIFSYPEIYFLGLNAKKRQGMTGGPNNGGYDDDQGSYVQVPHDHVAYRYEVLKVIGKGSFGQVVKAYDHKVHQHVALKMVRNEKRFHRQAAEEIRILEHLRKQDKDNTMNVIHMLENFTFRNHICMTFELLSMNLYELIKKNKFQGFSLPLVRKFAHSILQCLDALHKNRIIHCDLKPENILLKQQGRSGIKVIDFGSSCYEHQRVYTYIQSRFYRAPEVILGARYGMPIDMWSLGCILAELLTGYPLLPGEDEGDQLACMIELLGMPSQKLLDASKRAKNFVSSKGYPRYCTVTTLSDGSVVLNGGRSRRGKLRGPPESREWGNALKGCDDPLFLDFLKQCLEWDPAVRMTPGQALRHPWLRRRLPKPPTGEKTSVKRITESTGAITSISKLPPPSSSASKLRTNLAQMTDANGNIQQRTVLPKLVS

residual activity ([1]; compound 0.1 µM): 92%
residual activity ([1]; compound 1.0 µM): 84%
residual activity ([1]; compound 10.0 µM): 82%
residual activity ([2]; compound 0.1 µM): 106%
residual activity ([2]; compound 1.0 µM): 104%
residual activity ([2]; compound 10.0 µM): 97%
residual activity ([3]; compound 0.1 µM): 109%
residual activity ([3]; compound 1.0 µM): 101%
residual activity ([3]; compound 10.0 µM): 103%
residual activity ([4]; compound 0.1 µM): 116%
residual activity ([4]; compound 1.0 µM): 124%
residual activity ([4]; compound 10.0 µM): 119%
residual activity ([5]; compound 0.1 µM): 93%
residual activity ([5]; compound 1.0 µM): 98%
residual activity ([5]; compound 10.0 µM): 93%
residual activity ([6]; compound 0.1 µM): 103%
residual activity ([6]; compound 1.0 µM): 91%
residual activity ([6]; compound 10.0 µM): 91%
residual activity ([7]; compound 0.1 µM): 126%
residual activity ([7]; compound 1.0 µM): 108%
residual activity ([7]; compound 10.0 µM): 115%
residual activity ([8]; compound 0.1 µM): 115%
residual activity ([8]; compound 1.0 µM): 105%
residual activity ([8]; compound 10.0 µM): 108%
residual activity ([9]; compound 0.1 µM): 122%
residual activity ([9]; compound 1.0 µM): 101%
residual activity ([9]; compound 10.0 µM): 123%
residual activity ([10]; compound 0.1 µM): 95%
residual activity ([10]; compound 1.0 µM): 81%
residual activity ([10]; compound 10.0 µM): 83%
residual activity ([11]; compound 0.1 µM): 86%
residual activity ([11]; compound 1.0 µM): 72%
residual activity ([11]; compound 10.0 µM): 71%
residual activity ([12]; compound 0.1 µM): 108%
residual activity ([12]; compound 1.0 µM): 106%
residual activity ([12]; compound 10.0 µM): 106%
residual activity ([13]; compound 0.1 µM): 106%
residual activity ([13]; compound 1.0 µM): 95%
residual activity ([13]; compound 10.0 µM): 86%
residual activity ([14]; compound 0.1 µM): 72%
residual activity ([14]; compound 1.0 µM): 66%
residual activity ([14]; compound 10.0 µM): 67%
residual activity ([15]; compound 0.1 µM): 100%
residual activity ([15]; compound 1.0 µM): 108%
residual activity ([15]; compound 10.0 µM): 111%
residual activity ([16]; compound 0.1 µM): 93%
residual activity ([16]; compound 1.0 µM): 80%
residual activity ([16]; compound 10.0 µM): 87%
residual activity ([17]; compound 0.1 µM): 95%
residual activity ([17]; compound 1.0 µM): 87%
residual activity ([17]; compound 10.0 µM): 80%
residual activity ([18]; compound 0.1 µM): 98%
residual activity ([18]; compound 1.0 µM): 95%
residual activity ([18]; compound 10.0 µM): 91%
residual activity ([19]; compound 0.1 µM): 89%
residual activity ([19]; compound 1.0 µM): 99%
residual activity ([19]; compound 10.0 µM): 90%
residual activity ([20]; compound 0.1 µM): 114%
residual activity ([20]; compound 1.0 µM): 112%
residual activity ([20]; compound 10.0 µM): 104%
residual activity ([21]; compound 0.1 µM): 89%
residual activity ([21]; compound 1.0 µM): 97%
residual activity ([21]; compound 10.0 µM): 83%
residual activity ([22]; compound 0.1 µM): 108%
residual activity ([22]; compound 1.0 µM): 99%
residual activity ([22]; compound 10.0 µM): 98%
residual activity ([23]; compound 0.1 µM): 90%
residual activity ([23]; compound 1.0 µM): 95%
residual activity ([23]; compound 10.0 µM): 91%
residual activity ([24]; compound 0.1 µM): 110%
residual activity ([24]; compound 1.0 µM): 103%
residual activity ([24]; compound 10.0 µM): 108%
residual activity ([25]; compound 0.1 µM): 100%
residual activity ([25]; compound 1.0 µM): 95%
residual activity ([25]; compound 10.0 µM): 95%
residual activity ([26]; compound 0.1 µM): 118%
residual activity ([26]; compound 1.0 µM): 121%
residual activity ([26]; compound 10.0 µM): 107%
residual activity ([27]; compound 0.1 µM): 78%
residual activity ([27]; compound 1.0 µM): 70%
residual activity ([27]; compound 10.0 µM): 58%
residual activity ([28]; compound 0.1 µM): 96%
residual activity ([28]; compound 1.0 µM): 88%
residual activity ([28]; compound 10.0 µM): 89%
residual activity ([29]; compound 0.1 µM): 110%
residual activity ([29]; compound 1.0 µM): 94%
residual activity ([29]; compound 10.0 µM): 116%
residual activity ([30]; compound 0.1 µM): 95%
residual activity ([30]; compound 1.0 µM): 98%
residual activity ([30]; compound 10.0 µM): 81%
residual activity ([31]; compound 0.1 µM): 114%
residual activity ([31]; compound 1.0 µM): 108%
residual activity ([31]; compound 10.0 µM): 100%
residual activity ([32]; compound 0.1 µM): 83%
residual activity ([32]; compound 1.0 µM): 87%
residual activity ([32]; compound 10.0 µM): 78%
residual activity ([33]; compound 0.1 µM): 96%
residual activity ([33]; compound 1.0 µM): 90%
residual activity ([33]; compound 10.0 µM): 94%
residual activity ([34]; compound 0.1 µM): 102%
residual activity ([34]; compound 1.0 µM): 108%
residual activity ([34]; compound 10.0 µM): 91%
residual activity ([35]; compound 0.1 µM): 95%
residual activity ([35]; compound 1.0 µM): 91%
residual activity ([35]; compound 10.0 µM): 86%
SMILES: CCCCCc1ccc(/C=C/[C@H](O)[C@@H](CO)NC)cc1

residual activity ([1]; compound 1.0 µM): 101%
residual activity ([1]; compound 10.0 µM): 60%
residual activity ([2]; compound 1.0 µM): 81%
residual activity ([2]; compound 10.0 µM): 77%
residual activity ([3]; compound 1.0 µM): 85%
residual activity ([3]; compound 10.0 µM): 60%
residual activity ([4]; compound 1.0 µM): 95%
residual activity ([4]; compound 10.0 µM): 83%
residual activity ([5]; compound 1.0 µM): 84%
residual activity ([5]; compound 10.0 µM): 65%
residual activity ([6]; compound 1.0 µM): 104%
residual activity ([6]; compound 10.0 µM): 89%
residual activity ([7]; compound 1.0 µM): 118%
residual activity ([7]; compound 10.0 µM): 103%
residual activity ([8]; compound 1.0 µM): 122%
residual activity ([8]; compound 10.0 µM): 102%
residual activity ([9]; compound 1.0 µM): 93%
residual activity ([9]; compound 10.0 µM): 79%
residual activity ([10]; compound 1.0 µM): 83%
residual activity ([10]; compound 10.0 µM): 71%
residual activity ([11]; compound 1.0 µM): 85%
residual activity ([11]; compound 10.0 µM): 86%
residual activity ([12]; compound 1.0 µM): 100%
residual activity ([12]; compound 10.0 µM): 98%
residual activity ([13]; compound 1.0 µM): 138%
residual activity ([13]; compound 10.0 µM): 100%
residual activity ([14]; compound 1.0 µM): 90%
residual activity ([14]; compound 10.0 µM): 98%
residual activity ([15]; compound 1.0 µM): 88%
residual activity ([15]; compound 10.0 µM): 81%
residual activity ([16]; compound 1.0 µM): 84%
residual activity ([16]; compound 10.0 µM): 96%
residual activity ([17]; compound 1.0 µM): 105%
residual activity ([18]; compound 10.0 µM): 44%
residual activity ([19]; compound 1.0 µM): 87%
residual activity ([19]; compound 10.0 µM): 82%
residual activity ([20]; compound 1.0 µM): 96%
residual activity ([20]; compound 10.0 µM): 104%
residual activity ([21]; compound 1.0 µM): 60%
residual activity ([21]; compound 10.0 µM): 59%
residual activity ([22]; compound 1.0 µM): 84%
residual activity ([22]; compound 10.0 µM): 87%
residual activity ([23]; compound 1.0 µM): 101%
residual activity ([23]; compound 10.0 µM): 79%
residual activity ([24]; compound 1.0 µM): 89%
residual activity ([24]; compound 10.0 µM): 98%
residual activity ([25]; compound 1.0 µM): 83%
residual activity ([25]; compound 10.0 µM): 66%
residual activity ([26]; compound 1.0 µM): 66%
residual activity ([26]; compound 10.0 µM): 19%
residual activity ([27]; compound 1.0 µM): 120%
residual activity ([28]; compound 1.0 µM): 94%
residual activity ([28]; compound 10.0 µM): 92%
residual activity ([29]; compound 1.0 µM): 96%
residual activity ([29]; compound 10.0 µM): 80%
residual activity ([30]; compound 1.0 µM): 92%
residual activity ([30]; compound 10.0 µM): 84%
residual activity ([31]; compound 1.0 µM): 99%
residual activity ([31]; compound 10.0 µM): 99%
residual activity ([32]; compound 1.0 µM): 99%
residual activity ([32]; compound 10.0 µM): 98%
residual activity ([33]; compound 1.0 µM): 73%
residual activity ([33]; compound 10.0 µM): 75%
residual activity ([34]; compound 1.0 µM): 105%
residual activity ([34]; compound 10.0 µM): 101%
residual activity ([35]; compound 1.0 µM): 89%
residual activity ([35]; compound 10.0 µM): 87%
SMILES: Cc1nc(-c2ccc(OCC(C)C)c(C#N)c2)sc1C(=O)O
